From patent publication US8148387B2, “AKT and P70 S6 kinase inhibitors” (Eli Lilly and Company, priority 2008, dated 2012)
Where two headings read alike, the source gives them in different places.

Experiments:
[1] = test system: phosphorylated GSK3β serine 9 (pGSK3β); assay: AlphaScreen SureFire detection of pGSK3β in U87MG cells; format: cell-based; details: Homo sapiens, U-87 MG, 1 hour
Method: The effect of compounds on the formation of endogenous phosphorylated S6 ribosomal protein serine 240/244 (pS6) and phosphorylated GSK3β serine 9 (pGSK3β) are measured using the AlphaScreen SureFire® for either pS6 (TGR Biosciences, TGRS6P2S10K) or pGSK3β(TGRGBS10K). This is a homogeneous assay format using immuno-sandwich capture of the phosphorylated analyte followed by detection using antibody-coated Alphascreen beads to generate an amplified signal.
U87MG cells are maintained in U87MG growth medium consisting of DMEM supplemented with 10% Fetal bovine serum (FBS), 1% Nonessential amino acids and 1% sodium pyruvate. For the assay, cells are harvested by standard procedures and then counted using Vi-Cell. Cells (50,000/well) are plated in 100 μL of U87MG growth medium into Costar #3596 96 well plates. […]
On the day of the assay, cells are treated with 20 μL/well compound diluted in media containing 6% DMSO. […] The plate is sealed with foil, incubated at RT for 4 hours with gentle shaking and then read on Perkin Elmer EnVision equipped with a TurboModule using standard AlphaScreen® settings (Ex680nm and Em520-620nm). The percent inhibition determined from controls on each plate and ten-point compound concentration data are then fit to a four-parameter logistic equation using ACTIVITYBASE 4.0 (Assay Guidance Manual Version 5.0, 2008, Eli Lilly and Company and NIH Chemical Genomics Center).

[2] = test system: phosphorylation of the serine 240/244 site of S6RP; assay: p70 S6K/AKT In Vivo Target Inhibition, U87MG xenograft, pS6; set-up: species or system athymic nude mice; details: Mus musculus, U-87 MG, IV Dose 12.5 mpk, U87MG tumors, read-out: p(S240) S6 - % inhibition
Method: U87MG human glioblastoma cells (5×106) are subcutaneously implanted into the flank of athymic nude mice in 0.2 mL of matrigel. Two weeks post-implantation, mice are dosed orally or parenterally according to a time course, single dose/single time point, or dose response protocol for the determination of TMED50 (threshold minimum effective dose). Tumors are flash frozen at harvest and blood is collected for the determination of parent compound plasma exposure and the calculation of TMEC50 (threshold minimum effective concentration) in the case of dose response studies. Tumors or tissues are pulverized in liquid N2 and lysed in 400 μL of XY Lysis Buffer (10 μg/mL Leupeptin, 10 μg/mL Trypsin-Chymotrypsin Inhibitor, 10 μg/mL Tosyl phenyl-alanyl chloromethyl ketone, 10 μg/mL Aprotinin, 60 mM Beta-Glycerol Phosphate, 1% Triton X100, 25 mM Tris pH 7.5, 2.5 mM Pyrophosphate, 150 mM NaCl, 2 mM p-tosyl-L-arginine methyl ester, 15 mM para-nitrophenyl phosphate, 5 mM Benzamidine, 1 mM Na Vanadate, 10 mM NaF, 50 μg/mL phenyl-methane sulfonyl fluoride, 1 mM 1,4-Dithiothreitol (DTT), 15 mM EDTA pH 8.0, 5 mM EGTA pH 8.0, 1 μM Microcystin, 1 μM Okadaic Acid, and 1 Roche Complete protease inhibitor mini-tablet per 10 mL) using Lysing Matrix D tubes (MP Biomedicals, Solon, Ohio, cat#6913-500) and a BIO101 Thermo Savant Fast Prep FP12. Lysates are aliquoted and either assayed immediately or stored at −80° C. for later testing. In Vivo Target Inhibition of p70 S6K and AKT is measured utilizing Meso Scale Discovery (Gaithersburg, Md.) ELISA technology to assess effects on phosphorylation of the serine 240/244 site of the downstream effector S6RP. Phosphorylation of p70 S6K(T389), AKT(5473) and GSK3β(S9) is also assessed using this technology in a multiplex format. In summary, 20 μg of lysate is added to carbon electrode containing 96-well plates pre-spotted with the appropriate capture antibodies. The protein of interest is probed using a ruthenium labeled detection antibody. Upon the passage of current over the electrode in the presence of read buffer containing the co-reactant TPA, electro-chemiluminescence results in the generation of light which is quantified and recorded using the MSD Sector 6000 instrument. For each study, percent inhibitions are calculated relative to the vehicle control group and ANOVA analysis is performed using the JMP software package for the determination of statistical significance.

IC50 [1]: 331 nM
SMILES: CN(C)CCn1cc(-c2ccc(F)c(C(F)(F)F)c2)nc1C1CCN(c2ncnc3c2C(C)(C)C(=O)N3)CC1 [Example 31]
inhibition at 12.5 mg/kg ([2]; 1 hr post IV dose): 79.2%
inhibition at 12.5 mg/kg ([2]; 2 hr post IV dose): 87.6%
inhibition at 12.5 mg/kg ([2]; 4 hr post IV dose): 94.9%
inhibition at 12.5 mg/kg ([2]; 6 hr post IV dose): 91.7%
inhibition at 12.5 mg/kg ([2]; 8 hr post IV dose): 96.4%
inhibition at 12.5 mg/kg ([2]; 24 hr post IV dose): 45%
